# Laboratory results as given in ChEMBL document CHEMBL3885861, “Open TG-GATES”.
# Species on record: Rattus norvegicus
# Assay: Open TG-GATES - Regimen: Single
# Format: toxicity, organism-based, Sprague-Dawley
# Set-up: regimen Single, gender Male, age 6 weeks
# Details: in vivo, po, route gavage; for Bas / Eos / Fbg / Hb / Lym / MCH / MCHC / MCV / Mono / Neu / RBC / Ret / WBC / APTT: tissue Blood; for KIDNEY_L / KIDNEY_R / KIDNEY_TOTAL: tissue Kidney; for LIVER: tissue Liver; for ALP / ALT / AST / CRE / Ca / Cl / DBIL / GLC / IP / K / LDH / Na / PL / RALB / TBIL / TC / TG / TP / gamma-GTP: tissue Plasma
# [1] = 75 mg/kg, 3 h, dose level Middle
compound,measurement,setting,value
O=C1CN(/N=C/c2ccc(-c3ccc([N+](=O)[O-])cc3)o2)C(O)=N1 [DANTROLENE],Bas,"25 mg/kg, 3 h, dose level Low",0%
same,Eos,"25 mg/kg, 3 h, dose level Low",1%
same,Fbg,"25 mg/kg, 3 h, dose level Low",205.2 mg/dL
same,Hb,"25 mg/kg, 3 h, dose level Low",13.6 g/dL
same,Lym,"25 mg/kg, 3 h, dose level Low",74.4%
same,MCH,"25 mg/kg, 3 h, dose level Low",22.5 pg
same,MCHC,"25 mg/kg, 3 h, dose level Low",34.1%
same,MCV,"25 mg/kg, 3 h, dose level Low",65.9 fL
same,Mono,"25 mg/kg, 3 h, dose level Low",8.4%
same,Neu,"25 mg/kg, 3 h, dose level Low",16.2%
same,RBC,"25 mg/kg, 3 h, dose level Low",604.8 x10_4/ul
same,Ret,"25 mg/kg, 3 h, dose level Low",10.4%
same,WBC,"25 mg/kg, 3 h, dose level Low",99.1 x10_2/uL
same,KIDNEY_L,"25 mg/kg, 3 h, dose level Low",1 g
same,KIDNEY_R,"25 mg/kg, 3 h, dose level Low",1 g
same,KIDNEY_TOTAL,"25 mg/kg, 3 h, dose level Low",1.9 g
same,LIVER,"25 mg/kg, 3 h, dose level Low",9.5 g
same,ALP,"25 mg/kg, 3 h, dose level Low",1009.8 IU/L
same,ALT,"25 mg/kg, 3 h, dose level Low",38.4 IU/L
same,AST,"25 mg/kg, 3 h, dose level Low",69.2 IU/L
same,CRE,"25 mg/kg, 3 h, dose level Low",0.6 mg/dL
same,Ca,"25 mg/kg, 3 h, dose level Low",10.5 mg/dL
same,Cl,"25 mg/kg, 3 h, dose level Low",101.8 meq/L
same,DBIL,"25 mg/kg, 3 h, dose level Low",0.03 mg/dL
same,GLC,"25 mg/kg, 3 h, dose level Low",213 mg/dL
same,IP,"25 mg/kg, 3 h, dose level Low",10.8 mg/dL
same,K,"25 mg/kg, 3 h, dose level Low",4.8 meq/L
same,LDH,"25 mg/kg, 3 h, dose level Low",97.8 IU/L
same,Na,"25 mg/kg, 3 h, dose level Low",139.2 meq/L
same,PL,"25 mg/kg, 3 h, dose level Low",141.6 mg/dL
same,RALB,"25 mg/kg, 3 h, dose level Low",3.8 g/dL
same,TBIL,"25 mg/kg, 3 h, dose level Low",0.4 mg/dL
same,TC,"25 mg/kg, 3 h, dose level Low",83.4 mg/dL
same,TG,"25 mg/kg, 3 h, dose level Low",39.4 mg/dL
same,TP,"25 mg/kg, 3 h, dose level Low",5.6 g/dL
same,gamma-GTP,"25 mg/kg, 3 h, dose level Low",2.6 IU/L
same,TERMINAL_BW,"25 mg/kg, 6 h, dose level Low",191.8 g
same,APTT,"25 mg/kg, 6 h, dose level Low",16.9 s
same,Bas,"25 mg/kg, 6 h, dose level Low",0%
same,Eos,"25 mg/kg, 6 h, dose level Low",1.2%
same,Fbg,"25 mg/kg, 6 h, dose level Low",210.4 mg/dL
same,Hb,"25 mg/kg, 6 h, dose level Low",13.8 g/dL
same,Lym,"25 mg/kg, 6 h, dose level Low",77%
same,MCH,"25 mg/kg, 6 h, dose level Low",21.9 pg
same,MCHC,"25 mg/kg, 6 h, dose level Low",34.3%
same,MCV,"25 mg/kg, 6 h, dose level Low",64.1 fL
same,Mono,"25 mg/kg, 6 h, dose level Low",8%
same,Neu,"25 mg/kg, 6 h, dose level Low",14%
same,RBC,"25 mg/kg, 6 h, dose level Low",632.4 x10_4/ul
same,Ret,"25 mg/kg, 6 h, dose level Low",12.6%
same,WBC,"25 mg/kg, 6 h, dose level Low",89.5 x10_2/uL
same,KIDNEY_L,"25 mg/kg, 6 h, dose level Low",0.9 g
same,KIDNEY_R,"25 mg/kg, 6 h, dose level Low",0.9 g
same,KIDNEY_TOTAL,"25 mg/kg, 6 h, dose level Low",1.8 g
same,LIVER,"25 mg/kg, 6 h, dose level Low",8.7 g
same,ALP,"25 mg/kg, 6 h, dose level Low",698.6 IU/L
same,ALT,"25 mg/kg, 6 h, dose level Low",30.4 IU/L
same,AST,"25 mg/kg, 6 h, dose level Low",60.4 IU/L
same,CRE,"25 mg/kg, 6 h, dose level Low",0.5 mg/dL
same,Ca,"25 mg/kg, 6 h, dose level Low",10.3 mg/dL
same,Cl,"25 mg/kg, 6 h, dose level Low",103 meq/L
same,DBIL,"25 mg/kg, 6 h, dose level Low",0.07 mg/dL
same,GLC,"25 mg/kg, 6 h, dose level Low",188.2 mg/dL
same,IP,"25 mg/kg, 6 h, dose level Low",9.7 mg/dL
same,K,"25 mg/kg, 6 h, dose level Low",4.7 meq/L
same,LDH,"25 mg/kg, 6 h, dose level Low",100.8 IU/L
same,Na,"25 mg/kg, 6 h, dose level Low",139.2 meq/L
same,PL,"25 mg/kg, 6 h, dose level Low",141.6 mg/dL
same,RALB,"25 mg/kg, 6 h, dose level Low",3.7 g/dL
same,TBIL,"25 mg/kg, 6 h, dose level Low",0.4 mg/dL
same,TC,"25 mg/kg, 6 h, dose level Low",78.8 mg/dL
same,TG,"25 mg/kg, 6 h, dose level Low",44 mg/dL
same,TP,"25 mg/kg, 6 h, dose level Low",5.3 g/dL
same,gamma-GTP,"25 mg/kg, 6 h, dose level Low",2 IU/L
same,TERMINAL_BW,"25 mg/kg, 9 h, dose level Low",189.9 g
same,APTT,"25 mg/kg, 9 h, dose level Low",16.4 s
same,Bas,"25 mg/kg, 9 h, dose level Low",0%
same,Eos,"25 mg/kg, 9 h, dose level Low",0.6%
same,Fbg,"25 mg/kg, 9 h, dose level Low",209.8 mg/dL
same,Hb,"25 mg/kg, 9 h, dose level Low",13.9 g/dL
same,Lym,"25 mg/kg, 9 h, dose level Low",80.6%
same,MCH,"25 mg/kg, 9 h, dose level Low",21.6 pg
same,MCHC,"25 mg/kg, 9 h, dose level Low",33.1%
same,MCV,"25 mg/kg, 9 h, dose level Low",65.4 fL
same,Mono,"25 mg/kg, 9 h, dose level Low",5%
same,Neu,"25 mg/kg, 9 h, dose level Low",14%
same,RBC,"25 mg/kg, 9 h, dose level Low",644 x10_4/ul
same,Ret,"25 mg/kg, 9 h, dose level Low",10.9%
same,WBC,"25 mg/kg, 9 h, dose level Low",83 x10_2/uL
same,KIDNEY_L,"25 mg/kg, 9 h, dose level Low",0.9 g
same,KIDNEY_R,"25 mg/kg, 9 h, dose level Low",0.9 g
same,KIDNEY_TOTAL,"25 mg/kg, 9 h, dose level Low",1.8 g
same,LIVER,"25 mg/kg, 9 h, dose level Low",8.2 g
same,ALP,"25 mg/kg, 9 h, dose level Low",723.6 IU/L
same,ALT,"25 mg/kg, 9 h, dose level Low",22.2 IU/L
same,AST,"25 mg/kg, 9 h, dose level Low",49.4 IU/L
same,CRE,"25 mg/kg, 9 h, dose level Low",0.6 mg/dL
same,Ca,"25 mg/kg, 9 h, dose level Low",10.4 mg/dL
same,Cl,"25 mg/kg, 9 h, dose level Low",104.4 meq/L
same,DBIL,"25 mg/kg, 9 h, dose level Low",0.062 mg/dL
same,GLC,"25 mg/kg, 9 h, dose level Low",199.4 mg/dL
same,IP,"25 mg/kg, 9 h, dose level Low",10.1 mg/dL
same,K,"25 mg/kg, 9 h, dose level Low",5.1 meq/L
same,LDH,"25 mg/kg, 9 h, dose level Low",75.2 IU/L
same,Na,"25 mg/kg, 9 h, dose level Low",139 meq/L
same,PL,"25 mg/kg, 9 h, dose level Low",137.2 mg/dL
same,RALB,"25 mg/kg, 9 h, dose level Low",3.7 g/dL
same,TBIL,"25 mg/kg, 9 h, dose level Low",0.4 mg/dL
same,TC,"25 mg/kg, 9 h, dose level Low",69.8 mg/dL
same,TG,"25 mg/kg, 9 h, dose level Low",42.8 mg/dL
same,TP,"25 mg/kg, 9 h, dose level Low",5.5 g/dL
same,gamma-GTP,"25 mg/kg, 9 h, dose level Low",2 IU/L
same,TERMINAL_BW,"25 mg/kg, 24 h, dose level Low",208.5 g
same,APTT,"25 mg/kg, 24 h, dose level Low",16.6 s
same,Bas,"25 mg/kg, 24 h, dose level Low",0%
same,Eos,"25 mg/kg, 24 h, dose level Low",1%
same,Fbg,"25 mg/kg, 24 h, dose level Low",200.4 mg/dL
same,Hb,"25 mg/kg, 24 h, dose level Low",13.1 g/dL
same,Lym,"25 mg/kg, 24 h, dose level Low",81.2%
same,MCH,"25 mg/kg, 24 h, dose level Low",21.9 pg
same,MCHC,"25 mg/kg, 24 h, dose level Low",33.5%
same,MCV,"25 mg/kg, 24 h, dose level Low",65.4 fL
same,Mono,"25 mg/kg, 24 h, dose level Low",6.8%
same,RBC,"25 mg/kg, 24 h, dose level Low",600.4 x10_4/ul
same,Ret,"25 mg/kg, 24 h, dose level Low",11.4%
same,WBC,"25 mg/kg, 24 h, dose level Low",97.3 x10_2/uL
same,KIDNEY_L,"25 mg/kg, 24 h, dose level Low",1 g
same,KIDNEY_R,"25 mg/kg, 24 h, dose level Low",1 g
same,KIDNEY_TOTAL,"25 mg/kg, 24 h, dose level Low",2 g
same,LIVER,"25 mg/kg, 24 h, dose level Low",10.4 g
same,ALP,"25 mg/kg, 24 h, dose level Low",1049.2 IU/L
same,ALT,"25 mg/kg, 24 h, dose level Low",35.8 IU/L
same,AST,"25 mg/kg, 24 h, dose level Low",71.2 IU/L
same,CRE,"25 mg/kg, 24 h, dose level Low",0.5 mg/dL
same,Ca,"25 mg/kg, 24 h, dose level Low",11.1 mg/dL
same,Cl,"25 mg/kg, 24 h, dose level Low",105.4 meq/L
same,DBIL,"25 mg/kg, 24 h, dose level Low",0.012 mg/dL
same,GLC,"25 mg/kg, 24 h, dose level Low",198.2 mg/dL
same,IP,"25 mg/kg, 24 h, dose level Low",6.5 mg/dL
same,K,"25 mg/kg, 24 h, dose level Low",4.7 meq/L
same,Na,"25 mg/kg, 24 h, dose level Low",142 meq/L
same,PL,"25 mg/kg, 24 h, dose level Low",142.4 mg/dL
same,RALB,"25 mg/kg, 24 h, dose level Low",3.9 g/dL
same,TBIL,"25 mg/kg, 24 h, dose level Low",0.3 mg/dL
same,TC,"25 mg/kg, 24 h, dose level Low",77.8 mg/dL
same,TG,"25 mg/kg, 24 h, dose level Low",73.2 mg/dL
same,TP,"25 mg/kg, 24 h, dose level Low",5.6 g/dL
same,gamma-GTP,"25 mg/kg, 24 h, dose level Low",1.6 IU/L
same,TERMINAL_BW,[1],194 g
same,APTT,[1],16.9 s
